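Dose response: 5 concentrations. Exposure: 48 h. Format: 96-well plates. Endpoint: linear interpolation; highest concentration if not reached. TGI is the concentration that stops growth completely.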
Key:
Assay in all cases: NCI anticancer screen, dose series, 48 h
786-0 renal = test system: 786-0 renal
A498 renal = test system: A498 renal
A549 NSCLC = test system: A549 NSCLC
ACHN renal = test system: ACHN renal
BT-549 breast = test system: BT-549 breast
CAKI-1 renal = test system: CAKI-1 renal
CCRF-CEM leukemia = test system: CCRF-CEM leukemia
COLO 205 colon = test system: COLO 205 colon
DU-145 prostate = test system: DU-145 prostate
EKVX NSCLC = test system: EKVX NSCLC
HCC-2998 colon = test system: HCC-2998 colon
HCT-116 colon = test system: HCT-116 colon
HCT-15 colon = test system: HCT-15 colon
HOP-62 NSCLC = test system: HOP-62 NSCLC
HOP-92 NSCLC = test system: HOP-92 NSCLC
HS 578T breast = test system: HS 578T breast
HT29 colon = test system: HT29 colon
IGROV1 ovarian = test system: IGROV1 ovarian
K-562 leukemia = test system: K-562 leukemia
KM12 colon = test system: KM12 colon
LOX IMVI melanoma = test system: LOX IMVI melanoma
M14 melanoma = test system: M14 melanoma
MALME-3M melanoma = test system: MALME-3M melanoma
MCF7 breast = test system: MCF7 breast
MDA-MB-231 breast = test system: MDA-MB-231 breast
MDA-MB-435 = test system: MDA-MB-435
MDA-N = test system: MDA-N
MOLT-4 leukemia = test system: MOLT-4 leukemia
NCI-H226 lung = test system: NCI-H226 lung
NCI-H23 lung = test system: NCI-H23 lung
NCI-H460 lung = test system: NCI-H460 lung
NCI-H522 lung = test system: NCI-H522 lung
NCI/ADR-RES ovarian = test system: NCI/ADR-RES ovarian
OVCAR-3 ovarian = test system: OVCAR-3 ovarian
OVCAR-4 ovarian = test system: OVCAR-4 ovarian
OVCAR-5 ovarian = test system: OVCAR-5 ovarian
OVCAR-8 ovarian = test system: OVCAR-8 ovarian
PC-3 prostate = test system: PC-3 prostate
RPMI-8226 leukemia = test system: RPMI-8226 leukemia
RXF 393 renal = test system: RXF 393 renal
SF-268 CNS = test system: SF-268 CNS
SF-295 CNS = test system: SF-295 CNS
SF-539 CNS = test system: SF-539 CNS
SK-MEL-2 melanoma = test system: SK-MEL-2 melanoma
SK-MEL-28 melanoma = test system: SK-MEL-28 melanoma
SK-MEL-5 melanoma = test system: SK-MEL-5 melanoma
SK-OV-3 ovarian = test system: SK-OV-3 ovarian
SN12C renal = test system: SN12C renal
SNB-19 CNS = test system: SNB-19 CNS
SNB-75 CNS = test system: SNB-75 CNS
SR leukemia = test system: SR leukemia
SW-620 colon = test system: SW-620 colon
T-47D breast = test system: T-47D breast
TK-10 renal = test system: TK-10 renal
U251 CNS = test system: U251 CNS
UACC-257 melanoma = test system: UACC-257 melanoma
UACC-62 melanoma = test system: UACC-62 melanoma
UO-31 renal = test system: UO-31 renal
HL-60(TB) leukemia = test system: HL-60(TB) leukemia

Compound: O=C(/C=C/c1ccc(O)c(O)c1)NC(COC(=O)/C=C/c1ccc(O)c(O)c1)C(=O)O (stereo unspecified)
- TGI (786-0 renal): > 100 µM
- TGI (A498 renal): > 100 µM
- TGI (A549 NSCLC): > 100 µM
- TGI (ACHN renal): > 100 µM
- TGI (BT-549 breast): > 100 µM
- TGI (CAKI-1 renal): > 100 µM
- TGI (CCRF-CEM leukemia): > 100 µM
- TGI (COLO 205 colon): > 100 µM
- TGI (DU-145 prostate): > 100 µM
- TGI (EKVX NSCLC): > 100 µM
- TGI (HCC-2998 colon): > 100 µM
- TGI (HCT-116 colon): > 100 µM
- TGI (HCT-15 colon): > 100 µM
- TGI (HOP-62 NSCLC): > 100 µM
- TGI (HOP-92 NSCLC): > 100 µM
- TGI (HS 578T breast): > 100 µM
- TGI (HT29 colon): > 100 µM
- TGI (IGROV1 ovarian): > 100 µM
- TGI (K-562 leukemia): > 100 µM
- TGI (KM12 colon): > 100 µM
- TGI (LOX IMVI melanoma): > 100 µM
- TGI (M14 melanoma): > 100 µM
- TGI (MALME-3M melanoma): > 100 µM
- TGI (MCF7 breast): > 100 µM
- TGI (MDA-MB-231 breast): > 100 µM
- TGI (MDA-MB-435): > 100 µM
- TGI (MDA-N): > 100 µM
- TGI (MOLT-4 leukemia): > 100 µM
- TGI (NCI-H226 lung): > 100 µM
- TGI (NCI-H23 lung): > 100 µM
- TGI (NCI-H460 lung): > 100 µM
- TGI (NCI-H522 lung): > 100 µM
- TGI (NCI/ADR-RES ovarian): > 100 µM
- TGI (OVCAR-3 ovarian): > 100 µM
- TGI (OVCAR-4 ovarian): > 100 µM
- TGI (OVCAR-5 ovarian): > 100 µM
- TGI (OVCAR-8 ovarian): > 100 µM
- TGI (PC-3 prostate): > 100 µM
- TGI (RPMI-8226 leukemia): > 100 µM
- TGI (RXF 393 renal): > 100 µM
- TGI (SF-268 CNS): > 100 µM
- TGI (SF-295 CNS): > 100 µM
- TGI (SF-539 CNS): > 100 µM
- TGI (SK-MEL-2 melanoma): > 100 µM
- TGI (SK-MEL-28 melanoma): > 100 µM
- TGI (SK-MEL-5 melanoma): > 100 µM
- TGI (SK-OV-3 ovarian): > 100 µM
- TGI (SN12C renal): > 100 µM
- TGI (SNB-19 CNS): > 100 µM
- TGI (SNB-75 CNS): > 100 µM
- TGI (SR leukemia): > 100 µM
- TGI (SW-620 colon): > 100 µM
- TGI (T-47D breast): > 100 µM
- TGI (TK-10 renal): > 100 µM
- TGI (U251 CNS): > 100 µM
- TGI (UACC-257 melanoma): > 100 µM
- TGI (UACC-62 melanoma): > 100 µM
- TGI (UO-31 renal): > 100 µM

Compound: S=C(Nc1ccc2c(c1)oc1ccccc12)c1cccs1
- TGI (786-0 renal): 68.9 µM
- TGI (A498 renal): > 100 µM
- TGI (A549 NSCLC): > 100 µM
- TGI (ACHN renal): > 100 µM
- TGI (BT-549 breast): > 100 µM
- TGI (CAKI-1 renal): > 100 µM
- TGI (CCRF-CEM leukemia): > 100 µM
- TGI (COLO 205 colon): > 100 µM
- TGI (DU-145 prostate): > 100 µM
- TGI (EKVX NSCLC): > 100 µM
- TGI (HCC-2998 colon): > 100 µM
- TGI (HCT-116 colon): > 100 µM
- TGI (HCT-15 colon): > 100 µM
- TGI (HL-60(TB) leukemia): > 100 µM
- TGI (HOP-62 NSCLC): > 100 µM
- TGI (HOP-92 NSCLC): > 100 µM
- TGI (HS 578T breast): > 100 µM
- TGI (HT29 colon): > 100 µM
- TGI (IGROV1 ovarian): > 100 µM
- TGI (LOX IMVI melanoma): > 100 µM
- TGI (M14 melanoma): > 100 µM
- TGI (MCF7 breast): > 100 µM
- TGI (MDA-MB-231 breast): > 100 µM
- TGI (MDA-MB-435): > 100 µM
- TGI (MDA-N): > 100 µM
- TGI (MOLT-4 leukemia): > 100 µM
- TGI (NCI-H226 lung): > 100 µM
- TGI (NCI-H23 lung): > 100 µM
- TGI (NCI-H522 lung): > 100 µM
- TGI (NCI/ADR-RES ovarian): > 100 µM
- TGI (OVCAR-3 ovarian): > 100 µM
- TGI (OVCAR-4 ovarian): > 100 µM
- TGI (OVCAR-5 ovarian): > 100 µM
- TGI (OVCAR-8 ovarian): > 100 µM
- TGI (PC-3 prostate): > 100 µM
- TGI (RXF 393 renal): > 100 µM
- TGI (SF-268 CNS): > 100 µM
- TGI (SF-295 CNS): > 100 µM
- TGI (SF-539 CNS): > 100 µM
- TGI (SK-MEL-2 melanoma): > 100 µM
- TGI (SK-MEL-28 melanoma): > 100 µM
- TGI (SK-MEL-5 melanoma): > 100 µM
- TGI (SK-OV-3 ovarian): > 100 µM
- TGI (SN12C renal): > 100 µM
- TGI (SNB-19 CNS): > 100 µM
- TGI (SR leukemia): > 100 µM
- TGI (SW-620 colon): > 100 µM
- TGI (T-47D breast): > 100 µM
- TGI (TK-10 renal): > 100 µM
- TGI (U251 CNS): > 100 µM
- TGI (UACC-257 melanoma): > 100 µM
- TGI (UACC-62 melanoma): > 100 µM
- TGI (UO-31 renal): > 100 µM

From PubChem BioAssay (NCI)
